Assay results published in US9580470B2, “High-purity cyclopeptide crystal as well as preparation method and use thereof” (SHANGHAI TECHWELL BIOPHARMACEUTICAL CO., LTD., priority 2012, dated 2017).

Experiment: Purity and stability test (content of impurities on storage)
Type: physicochemical
Settings: for Content of impurities in the initial sample: before storage; for 0-8° C., content of impurities in the sample at 7 day: sealed containers at 0-8° C. for 7 days
Protocol: In this example, the purity and stability of the samples obtained in Comparative Examples and Examples were compared. The specific method is described as follows:
And then the content of impurities in each sample was analyzed.

SMILES | Content of impurities in the initial sample [%] | 0-8° C., content of impurities in the sample at 7 day [%]
CC(O)C1NC(=O)C(N)CC(O)C(O)NC(=O)C2C(O)C(C)CN2C(=O)C(C(O)CC(N)=O)NC(=O)C(C(O)C(O)c2ccc(O)c(OS(=O)(=O)O)c2)NC(=O)C2CC(O)CN2C1=O (single isomer, unassigned) [Comparative Example 3] | 1.9 | 3.2
CC(O)C1NC(=O)C(N)CC(O)C(O)NC(=O)C2C(O)C(C)CN2C(=O)C(C(O)CC(N)=O)NC(=O)C(C(O)C(O)c2ccc(O)c(OS(=O)(=O)O)c2)NC(=O)C2CC(O)CN2C1=O (single isomer, unassigned) [Comparative Example 2] | 1.9 | 3.4
CC(O)C1NC(=O)C(N)CC(O)C(O)NC(=O)C2C(O)C(C)CN2C(=O)C(C(O)CC(N)=O)NC(=O)C(C(O)C(O)c2ccc(O)c(OS(=O)(=O)O)c2)NC(=O)C2CC(O)CN2C1=O (single isomer, unassigned) [Comparative Example 4] | 1.8 | 2.9
C[C@@H](O)[C@@H]1NC(=O)[C@@H](N)C[C@@H](O)[C@@H](O)NC(=O)[C@@H]2[C@@H](O)[C@@H](C)CN2C(=O)[C@H]([C@H](O)CC(N)=O)NC(=O)[C@H]([C@H](O)[C@@H](O)c2ccc(O)c(OS(=O)(=O)O)c2)NC(=O)[C@@H]2C[C@@H](O)CN2C1=O [Example 1] | 2.5 | 4.8
CC(O)C1NC(=O)C(N)CC(O)C(O)NC(=O)C2C(O)C(C)CN2C(=O)C(C(O)CC(N)=O)NC(=O)C(C(O)C(O)c2ccc(O)c(OS(=O)(=O)O)c2)NC(=O)C2CC(O)CN2C1=O (single isomer, unassigned) [Comparative Example 6] | 2.4 | 4.1
CC(O)C1NC(=O)C(N)CC(O)C(O)NC(=O)C2C(O)C(C)CN2C(=O)C(C(O)CC(N)=O)NC(=O)C(C(O)C(O)c2ccc(O)c(OS(=O)(=O)O)c2)NC(=O)C2CC(O)CN2C1=O (single isomer, unassigned) [Comparative Example 7] | 2.4 | 4.7
CC(O)C1NC(=O)C(N)CC(O)C(O)NC(=O)C2C(O)C(C)CN2C(=O)C(C(O)CC(N)=O)NC(=O)C(C(O)C(O)c2ccc(O)c(OS(=O)(=O)O)c2)NC(=O)C2CC(O)CN2C1=O (single isomer, unassigned) [Comparative Example 5] | 2.1 | 3.6
